The experiment has as its system CAF1 mice, leiomyosarcoma No.2 ip, survival T/C%. Description: NCI In Vivo Anticancer Drug Screen. Data for tumor model Leiomyosarcoma (No. 2) (intraperitoneal) in CAF1 mice. The following applies: endpoint: mean survival time, higher = longer survival. The protocol: The antitumor activity of compounds was measured in mice bearing transplantable tumors. Survival or tumor size were measured and the results are expressed as the measurement made in the treated group (T) divided by the measurement made in the vehicle treated control group (C). The tumor model used in this assay is Leiomyosarcoma (No. 2) (intraperitoneal) in CAF1 mice

Setting [1] is: dose: 1.25 mg/kg/injection, schedule: Q01DX010 (ip), vehicle: saline.
Where [2] appears, read: dose: 2.5 mg/kg/injection, schedule: Q01DX010 (ip), vehicle: saline.
[3] abbreviates: dose: 5.0 mg/kg/injection, schedule: Q01DX010 (ip), vehicle: saline.
Where [4] appears, read: dose: 10.0 mg/kg/injection, schedule: Q01DX010 (ip), vehicle: saline.
The mark [5] stands for this setting: dose: 2.0 mg/kg/injection, schedule: Q01DX010 (ip), vehicle: saline.
Setting [6] is: dose: 8.0 mg/kg/injection, schedule: Q01DX010 (ip), vehicle: saline.
Setting [7] is: dose: 4.0 mg/kg/injection, schedule: Q01DX010 (ip), vehicle: saline.
Setting [8] is: dose: 16.0 mg/kg/injection, schedule: Q01DX010 (ip), vehicle: saline.
[9] abbreviates: dose: 20.0 mg/kg/injection, schedule: Q01DX010 (ip), vehicle: saline.
[10] abbreviates: dose: 80.0 mg/kg/injection, schedule: Q01DX010 (ip), vehicle: saline.
[11] abbreviates: dose: 3.13 mg/kg/injection, schedule: Q01DX010 (ip), vehicle: saline.
[12] abbreviates: dose: 6.25 mg/kg/injection, schedule: Q01DX010 (ip), vehicle: saline.
Where [13] appears, read: dose: 25.0 mg/kg/injection, schedule: Q01DX010 (ip), vehicle: saline.
Where [14] appears, read: dose: 250.0 mg/kg/injection, schedule: Q01DX010 (ip), vehicle: saline.
[15] abbreviates: dose: 12.5 mg/kg/injection, schedule: Q01DX010 (ip), vehicle: saline.
Setting [16] is: dose: 50.0 mg/kg/injection, schedule: Q01DX010 (ip), vehicle: saline.
[17] abbreviates: dose: 100.0 mg/kg/injection, schedule: Q01DX010 (ip), vehicle: saline.
Where [18] appears, read: dose: 12.5 mg/kg/injection, schedule: Q01DX010 (sc), vehicle: steriod suspending solution.
The mark [19] stands for this setting: dose: 25.0 mg/kg/injection, schedule: Q01DX010 (sc), vehicle: steriod suspending solution.
The mark [20] stands for this setting: dose: 50.0 mg/kg/injection, schedule: Q01DX010 (sc), vehicle: steriod suspending solution.
[21] abbreviates: dose: 40.0 mg/kg/injection, schedule: Q01DX010 (ip), vehicle: saline.
Setting [22] is: dose: 32.0 mg/kg/injection, schedule: Q01DX010 (ip), vehicle: saline.

“And” between values parts separate entries of the source, which are not always exact repeats. Equal entries are not always repeated. Inconclusive results and toxic doses are left out.

As to `O=C(O)c1[nH]c(=O)[nH]c(=O)c1F`, the T/C runs as follows: under setting [1], 112 % of control; under setting [2], 112 % of control; under setting [3], 120 % of control; under setting [4], 108 % of control.
Regarding `C=CC(CN1CC1)OC(C)=O` (centres undefined), the T/C runs as follows: under setting [5], 104 % of control; under setting [6], 176 % of control.
Turning to `C=C1C[C@H]2[C@@H]3C=C(C)C4=CC(=O)CC[C@]4(C)[C@H]3CC[C@]2(C)[C@@]1(OC(C)=O)C(C)=O`, the T/C is 113 % of control (dose: 62.5 mg/kg/injection, schedule: Q01DX010 (sc), vehicle: steriod suspending solution); 102 % of control (dose: 125.0 mg/kg/injection, schedule: Q01DX010 (sc), vehicle: steriod suspending solution); 89 % of control (dose: 250.0 mg/kg/injection, schedule: Q01DX010 (sc), vehicle: steriod suspending solution); 94 % of control (dose: 500.0 mg/kg/injection, schedule: Q01DX010 (sc), vehicle: steriod suspending solution).
Take `CC(CCC(C)OS(C)(=O)=O)OS(C)(=O)=O` (centres undefined): the T/C was 104 % of control under setting [5]; 100 % of control under setting [7]; 103 % of control and 104 % of control under setting [6]; 117 % of control under setting [8].
For the compound `CCCCOP(=S)(N1CC1)N1CC1`, the T/C runs as follows: under setting [7], 165 % of control; under setting [6], 223 % of control; under setting [8], 250 % of control.
With `OCC1OC(n2cnc3c(=S)nc[nH]c32)C(O)C1O` (centres undefined), the T/C runs as follows: under setting [9], 161 % of control and 248 % of control; under setting [10], 153 % of control; (dose: 160.0 mg/kg/injection, schedule: Q01DX010 (ip), vehicle: saline) 87 % of control.
Consider `N=[N+]=CC(=O)OCC(N)C(=O)O` (centres undefined), for which the T/C was 96 % of control under setting [11], 104 % of control under setting [12] and 96 % of control under setting [13].
Take `CCCSc1ncnc2nc[nH]c12`: the T/C is 189 % of control and 233 % of control (dose: 31.3 mg/kg/injection, schedule: Q01DX010 (ip), vehicle: saline); 103 % of control and 117 % of control (dose: 125.0 mg/kg/injection, schedule: Q01DX010 (ip), vehicle: saline); 103 % of control under setting [14].
As to `CS(=O)(=O)OCCC(=O)N1CCN(C(=O)CCOS(C)(=O)=O)CC1`, the T/C was 172 % of control under setting [15], 224 % of control under setting [13], 232 % of control under setting [16] and 304 % of control under setting [17].
As for `Nc1nc(N)c2nc(CNc3ccc(C(=O)NC(CCC(=O)O)C(=O)O)cc3)cnc2n1` (centres undefined), the T/C runs as follows: (dose: 0.03 mg/kg/injection, schedule: Q01DX010 (ip), vehicle: other) 103 % of control and 110 % of control; (dose: 0.05 mg/kg/injection, schedule: Q01DX010 (ip), vehicle: other) 106 % of control; (dose: 0.1 mg/kg/injection, schedule: Q01DX010 (ip), vehicle: other) 106 % of control and 107 % of control; (dose: 0.2 mg/kg/injection, schedule: Q01DX010 (ip), vehicle: other) 110 % of control.
As to `O=c1[nH]cc(F)c(=O)[nH]1`, the T/C reads like this: under setting [3], 195 % of control; under setting [4], 213 % of control and 227 % of control; under setting [9], 181 % of control and 186 % of control.
As for `O=C(O)CCCc1ccc(N(CCCl)CCCl)cc1`, the T/C under setting [12] is 153 % of control and 279 % of control; the T/C under setting [15] is 203 % of control and 225 % of control.
As for `CC/C(=C(/CC)c1ccc(O)cc1)c1ccc(O)cc1`, the T/C was 91 % of control and 96 % of control under setting [18]; 96 % of control and 100 % of control under setting [19]; 91 % of control and 92 % of control under setting [20]; 91 % of control and 100 % of control (dose: 100.0 mg/kg/injection, schedule: Q01DX010 (sc), vehicle: steriod suspending solution).
As for `Nc1ncnc2[nH]ncc12`, the T/C (dose: 1.5 mg/kg/injection, schedule: Q01DX010 (ip), vehicle: saline) was 107 % of control and 112 % of control; the T/C (dose: 3.0 mg/kg/injection, schedule: Q01DX010 (ip), vehicle: saline) is 103 % of control and 108 % of control; the T/C (dose: 6.0 mg/kg/injection, schedule: Q01DX010 (ip), vehicle: saline) was 96 % of control and 100 % of control; the T/C (dose: 12.0 mg/kg/injection, schedule: Q01DX010 (ip), vehicle: saline) is 88 % of control and 95 % of control.
Regarding `Oc1cc(CN(CCCl)CCCl)c(O)cc1CN(CCCl)CCCl`, the T/C by setting is: (dose: 0.31 mg/kg/injection, schedule: Q01DX010 (ip), vehicle: saline) 162 % of control; (dose: 0.63 mg/kg/injection, schedule: Q01DX010 (ip), vehicle: saline) 159 % of control; under setting [1], 159 % of control and 175 % of control and 184 % of control; under setting [2], 186 % of control; under setting [3], 118 % of control.
Turning to `CSc1ncnc2nc[nH]c12`, the T/C is 100 % of control and 109 % of control under setting [13]; 104 % of control and 109 % of control under setting [16]; 104 % of control and 113 % of control under setting [17]; 100 % of control (dose: 200.0 mg/kg/injection, schedule: Q01DX010 (ip), vehicle: saline).
On to `C[C@@H]1C[C@@H]([C@H](O)CC2CC(=O)NC(=O)C2)C(=O)[C@@H](C)C1`, for which the T/C reads like this: under setting [3], 100 % of control and 103 % of control; under setting [4], 110 % of control and 111 % of control; under setting [9], 116 % of control; under setting [21], 163 % of control and 169 % of control.
As for `CCOC(=O)c1[nH]c2ccccc2c1CN(CCCl)CCCl`, the T/C is 116 % of control under setting [4], 170 % of control under setting [9] and 150 % of control under setting [21].
With `C[C@]12C=CC(=O)C=C1CC[C@@H]1[C@@H]2[C@@H](O)C[C@@]2(C)[C@H]1CC[C@]2(O)C(=O)CO`, the T/C by setting is: under setting [18], 86 % of control and 107 % of control; under setting [19], 92 % of control and 93 % of control; under setting [20], 100 % of control and 107 % of control.
Regarding `COS(C)(=O)=O`, the T/C is 108 % of control under setting [15], 108 % of control under setting [13] and 112 % of control under setting [16].
`O=C(Nc1ccc(NC2=NCCN2)cc1)c1ccc(C(=O)Nc2ccc(NC3=NCCN3)cc2)cc1`: the T/C runs as follows: under setting [5], 103 % of control and 123 % of control; under setting [6], 123 % of control; under setting [8], 107 % of control.
Regarding `CC(=O)N(C)C`, the T/C (dose: 62.5 mg/kg/injection, schedule: Q01DX010 (ip), vehicle: saline) was 90 % of control and the T/C under setting [14] is 96 % of control.
For the compound `O=NN(CCCl)C(=O)NCCCl`, the T/C under setting [11] is 300 % of control; the T/C under setting [12] was 258 % of control and 300 % of control; the T/C under setting [15] is 115 % of control and 120 % of control.
Take `Cn1c(N)nc2nc[nH]c2c1=S`: the T/C was 100 % of control under setting [4], 120 % of control under setting [9], 104 % of control under setting [21] and 108 % of control under setting [10].
Regarding `Nc1nc(SCc2ccccc2)c2[nH]cnc2n1`, the T/C under setting [6] is 112 % of control and 115 % of control; the T/C under setting [8] was 100 % of control; the T/C under setting [22] is 107 % of control and 120 % of control; the T/C (dose: 64.0 mg/kg/injection, schedule: Q01DX010 (ip), vehicle: saline) was 103 % of control and 104 % of control.
Consider `C[C@H]1C(=O)O[C@@H]2CCN3CC=C(COC(=O)[C@](C)(O)[C@@]1(C)O)[C@H]23`, for which the T/C under setting [11] is 100 % of control; the T/C under setting [12] is 94 % of control and 109 % of control; the T/C under setting [15] was 86 % of control and 118 % of control; the T/C under setting [13] is 108 % of control and 118 % of control.
As to `CN1CC[C@]23c4c5ccc(O)c4O[C@H]2C(=O)CC[C@H]3[C@H]1C5`, the T/C runs as follows: under setting [7], 96 % of control; under setting [6], 92 % of control; under setting [8], 104 % of control; under setting [22], 92 % of control.
`S=P(N1CCOCC1)(N1CC1)N1CC1`: the T/C under setting [2] was 96 % of control and 104 % of control; the T/C under setting [3] is 116 % of control and 117 % of control; the T/C under setting [4] is 153 % of control and 179 % of control; the T/C under setting [9] was 164 % of control.
For the compound `O=c1c(O)cccc2cc(O)c(O)c(O)c12`, the T/C was 88 % of control under setting [13] and 102 % of control under setting [16].
Turning to `O[C@H](CN1CC1)[C@@H](O)CN1CC1`, the T/C by setting is: (dose: 125.0 micrograms/kg/injection, schedule: Q01DX010 (ip), vehicle: saline) 150 % of control; (dose: 250.0 micrograms/kg/injection, schedule: Q01DX010 (ip), vehicle: saline) 179 % of control; (dose: 500.0 micrograms/kg/injection, schedule: Q01DX010 (ip), vehicle: saline) 204 % of control.
`Nc1nc(=S)c2[nH]cnc2[nH]1`: the T/C under setting [1] is 300 % of control and the T/C under setting [3] is 93 % of control.

(Values after PubChem BioAssay AID238 (DTP/NCI, 2004).)
